# Measurements taken from ChEMBL document CHEMBL3885861, “Open TG-GATES”.
# Species on record: Rattus norvegicus
# Assay: Open TG-GATES - Regimen: Daily Repeat
# Type: toxicity, organism-based, Sprague-Dawley
# Set-up: regimen Daily Repeat, gender Male, age 6 weeks
# Conditions: in vivo, po, route gavage; for APTT / Bas / Eos / Fbg / Hb / Ht / Lym / MCH / MCV / Mono / Neu / PT / Plat / RBC / Ret / WBC / MCHC: tissue Blood; for KIDNEY_L / KIDNEY_R / KIDNEY_TOTAL: tissue Kidney; for LIVER: tissue Liver; for ALP / ALT / AST / CRE / Ca / Cl / DBIL / GLC / IP / K / LDH / Na / PL / RALB / TBIL / TC / TG / TP / gamma-GTP / BUN: tissue Plasma
# [1] = 0 mg/kg, 72 h, dose level Control, time 3 day
# [2] = 0 mg/kg, […], dose level Control, time 7 day
# [3] = 0 mg/kg, […], dose level Control, time 14 day
# [4] = 0 mg/kg, […], dose level Control, time 28 day
# [5] = 100 mg/kg, 72 h, dose level Low, time 3 day
# [6] = 100 mg/kg, […], dose level Low, time 7 day
# [7] = 100 mg/kg, […], dose level Low, time 14 day
# [8] = 100 mg/kg, […], dose level Low, time 28 day
smiles,measurement,setting,value
CCOc1ccc(NC(C)=O)cc1 [PHENACETIN],TERMINAL_BW,[1],242.4 g
same,APTT,[1],16.7 s
same,Bas,[1],0%
same,Eos,[1],1%
same,Fbg,[1],299.2 mg/dL
same,Hb,[1],13.2 g/dL
same,Ht,[1],39.8%
same,Lym,[1],71.2%
same,MCH,[1],21.1 pg
same,MCV,[1],63.4 fL
same,Mono,[1],2.8%
same,Neu,[1],24.4%
same,PT,[1],13.2 s
same,Plat,[1],121.2 x10_4/uL
same,RBC,[1],628.2 x10_4/ul
same,Ret,[1],6.6%
same,WBC,[1],85.4 x10_2/uL
same,KIDNEY_L,[1],1 g
same,KIDNEY_R,[1],1 g
same,KIDNEY_TOTAL,[1],2 g
same,LIVER,[1],11.5 g
same,ALP,[1],2120 IU/L
same,ALT,[1],37.8 IU/L
same,AST,[1],67.2 IU/L
same,CRE,[1],0.2 mg/dL
same,Ca,[1],11.1 mg/dL
same,Cl,[1],105.6 meq/L
same,DBIL,[1],0.004 mg/dL
same,GLC,[1],176.6 mg/dL
same,IP,[1],7.2 mg/dL
same,K,[1],4.2 meq/L
same,LDH,[1],118.6 IU/L
same,Na,[1],143.8 meq/L
same,PL,[1],171 mg/dL
same,RALB,[1],2.6 g/dL
same,TBIL,[1],0.04 mg/dL
same,TC,[1],85.8 mg/dL
same,TG,[1],102.4 mg/dL
same,TP,[1],5.7 g/dL
same,gamma-GTP,[1],1 IU/L
same,TERMINAL_BW,[2],272.4 g
same,TERMINAL_BW,[3],332.8 g
same,TERMINAL_BW,[4],424.6 g
same,APTT,[2],17.7 s
same,Bas,[2],0%
same,Eos,[2],1.4%
same,Fbg,[2],300.2 mg/dL
same,Hb,[2],13.9 g/dL
same,Ht,[2],41.1%
same,Lym,[2],78.6%
same,MCH,[2],21.2 pg
same,MCHC,[2],33.8%
same,MCV,[2],62.6 fL
same,Mono,[2],2.6%
same,PT,[2],13.5 s
same,Plat,[2],118.8 x10_4/uL
same,RBC,[2],656.2 x10_4/ul
same,Ret,[2],5.4%
same,WBC,[2],93.4 x10_2/uL
same,APTT,[3],17.5 s
same,Bas,[3],0%
same,Eos,[3],1.4%
same,Fbg,[3],320.2 mg/dL
same,Hb,[3],14.3 g/dL
same,Ht,[3],42.1%
same,Lym,[3],75%
same,MCH,[3],19.9 pg
same,MCHC,[3],34%
same,MCV,[3],58.6 fL
same,Mono,[3],2.6%
same,Neu,[3],20.6%
same,PT,[3],13.3 s
same,Plat,[3],117.7 x10_4/uL
same,RBC,[3],720.4 x10_4/ul
same,Ret,[3],4.1%
same,WBC,[3],108.4 x10_2/uL
same,APTT,[4],23 s
same,Bas,[4],0%
same,Eos,[4],1.4%
same,Fbg,[4],276 mg/dL
same,Hb,[4],15 g/dL
same,Ht,[4],43.5%
same,Lym,[4],73.2%
same,MCH,[4],19.2 pg
same,MCV,[4],55.6 fL
same,Mono,[4],2.6%
same,Neu,[4],22.2%
same,PT,[4],14 s
same,Plat,[4],114.1 x10_4/uL
same,RBC,[4],782.6 x10_4/ul
same,Ret,[4],2.6%
same,WBC,[4],109.3 x10_2/uL
same,KIDNEY_L,[2],1.1 g
same,KIDNEY_R,[2],1.1 g
same,KIDNEY_TOTAL,[2],2.3 g
same,KIDNEY_L,[3],1.3 g
same,KIDNEY_R,[3],1.3 g
same,KIDNEY_TOTAL,[3],2.7 g
same,KIDNEY_L,[4],1.4 g
same,KIDNEY_R,[4],1.4 g
same,KIDNEY_TOTAL,[4],2.7 g
same,LIVER,[2],12.1 g
same,LIVER,[3],13.9 g
same,LIVER,[4],17 g
same,ALP,[2],1453 IU/L
same,ALT,[2],33.4 IU/L
same,AST,[2],65.8 IU/L
same,BUN,[2],15 mg/dL
same,CRE,[2],0.2 mg/dL
same,Ca,[2],10.9 mg/dL
same,Cl,[2],105 meq/L
same,DBIL,[2],0.004 mg/dL
same,IP,[2],7.1 mg/dL
same,K,[2],4.2 meq/L
same,LDH,[2],95.8 IU/L
same,PL,[2],167.6 mg/dL
same,RALB,[2],2.7 g/dL
same,TBIL,[2],0.044 mg/dL
same,TC,[2],84.4 mg/dL
same,TG,[2],127.8 mg/dL
same,TP,[2],5.9 g/dL
same,gamma-GTP,[2],1 IU/L
same,ALP,[3],1542.8 IU/L
same,ALT,[3],36.4 IU/L
same,AST,[3],62.4 IU/L
same,BUN,[3],14.6 mg/dL
same,CRE,[3],0.2 mg/dL
same,Ca,[3],10.8 mg/dL
same,Cl,[3],104.6 meq/L
same,DBIL,[3],0.024 mg/dL
same,GLC,[3],181.4 mg/dL
same,IP,[3],7.1 mg/dL
same,K,[3],4.2 meq/L
same,LDH,[3],158.6 IU/L
same,Na,[3],143.6 meq/L
same,PL,[3],152 mg/dL
same,RALB,[3],2.7 g/dL
same,TBIL,[3],0.062 mg/dL
same,TC,[3],72.6 mg/dL
same,TG,[3],129 mg/dL
same,TP,[3],6 g/dL
same,gamma-GTP,[3],1.2 IU/L
same,ALP,[4],1212.8 IU/L
same,ALT,[4],37 IU/L
same,AST,[4],68.2 IU/L
same,BUN,[4],17.2 mg/dL
same,CRE,[4],0.3 mg/dL
same,Ca,[4],10.7 mg/dL
same,Cl,[4],104.8 meq/L
same,DBIL,[4],0.02 mg/dL
same,GLC,[4],185.2 mg/dL
same,IP,[4],6 mg/dL
same,K,[4],4 meq/L
same,LDH,[4],76.6 IU/L
same,Na,[4],144.8 meq/L
same,PL,[4],149 mg/dL
same,RALB,[4],2.9 g/dL
same,TBIL,[4],0.048 mg/dL
same,TG,[4],162.4 mg/dL
same,TP,[4],6.4 g/dL
same,gamma-GTP,[4],1 IU/L
same,TERMINAL_BW,[5],232.8 g
same,APTT,[5],20.2 s
same,Bas,[5],0%
same,Eos,[5],1.2%
same,Fbg,[5],290.4 mg/dL
same,Ht,[5],41.7%
same,Lym,[5],76.8%
same,MCH,[5],20.4 pg
same,MCHC,[5],33%
same,MCV,[5],61.8 fL
same,Mono,[5],2.6%
same,PT,[5],13.4 s
same,Plat,[5],116.5 x10_4/uL
same,RBC,[5],676.4 x10_4/ul
same,Ret,[5],5.2%
same,WBC,[5],101.2 x10_2/uL
same,KIDNEY_L,[5],1 g
same,KIDNEY_R,[5],1 g
same,KIDNEY_TOTAL,[5],2.1 g
same,LIVER,[5],10.9 g
same,ALP,[5],1708.4 IU/L
same,ALT,[5],40 IU/L
same,AST,[5],70.4 IU/L
same,BUN,[5],13 mg/dL
same,CRE,[5],0.2 mg/dL
same,Ca,[5],11.2 mg/dL
same,Cl,[5],105.8 meq/L
same,DBIL,[5],0.006 mg/dL
same,GLC,[5],172.8 mg/dL
same,IP,[5],6.8 mg/dL
same,K,[5],4.2 meq/L
same,LDH,[5],148 IU/L
same,Na,[5],143.4 meq/L
same,PL,[5],158.8 mg/dL
same,RALB,[5],2.7 g/dL
same,TBIL,[5],0.04 mg/dL
same,TC,[5],77 mg/dL
same,TG,[5],110.6 mg/dL
same,TP,[5],5.8 g/dL
same,gamma-GTP,[5],1.2 IU/L
same,TERMINAL_BW,[6],270.6 g
same,TERMINAL_BW,[7],323.2 g
same,TERMINAL_BW,[8],411.2 g
same,APTT,[6],16.8 s
same,Bas,[6],0%
same,Eos,[6],1.2%
same,Fbg,[6],298.2 mg/dL
same,Hb,[6],14.1 g/dL
same,Ht,[6],42%
same,Lym,[6],78.2%
same,MCHC,[6],33.7%
same,MCV,[6],60.3 fL
same,Mono,[6],2%
same,Neu,[6],18%
same,PT,[6],13.4 s
same,Plat,[6],123.3 x10_4/uL
same,RBC,[6],696.4 x10_4/ul
same,Ret,[6],5.6%
same,WBC,[6],96.3 x10_2/uL
same,APTT,[7],17.8 s
same,Bas,[7],0.4%
same,Eos,[7],0.8%
same,Fbg,[7],292.4 mg/dL
same,Ht,[7],43.4%
same,Lym,[7],79.8%
same,MCH,[7],19.9 pg
same,MCHC,[7],34%
same,MCV,[7],58.5 fL
same,Mono,[7],2%
same,Neu,[7],16.6%
same,PT,[7],13.3 s
same,Plat,[7],118.2 x10_4/uL
same,RBC,[7],740.8 x10_4/ul
same,Ret,[7],4.1%
same,WBC,[7],112.5 x10_2/uL
same,APTT,[8],18.4 s
same,Bas,[8],0%
same,Eos,[8],1.6%
same,Fbg,[8],278.8 mg/dL
same,Hb,[8],15 g/dL
same,Ht,[8],43.8%
same,MCH,[8],19 pg
same,MCHC,[8],34.3%
same,MCV,[8],55.3 fL
same,Mono,[8],2.4%
same,Plat,[8],122.4 x10_4/uL
same,RBC,[8],792.8 x10_4/ul
same,Ret,[8],3%
same,WBC,[8],92.4 x10_2/uL
same,KIDNEY_L,[6],1.1 g
same,KIDNEY_R,[6],1.1 g
same,KIDNEY_TOTAL,[6],2.3 g
same,KIDNEY_L,[7],1.2 g
same,KIDNEY_R,[7],1.2 g
same,KIDNEY_TOTAL,[7],2.5 g
same,KIDNEY_L,[8],1.4 g
same,KIDNEY_R,[8],1.4 g
same,KIDNEY_TOTAL,[8],2.8 g
same,LIVER,[6],12.8 g
same,LIVER,[7],13.9 g
same,LIVER,[8],16.4 g
same,ALP,[6],1550.8 IU/L
same,BUN,[6],15.4 mg/dL
same,CRE,[6],0.2 mg/dL
same,Ca,[6],11.2 mg/dL
same,Cl,[6],104.8 meq/L
same,DBIL,[6],0.006 mg/dL
same,GLC,[6],186 mg/dL
same,IP,[6],6.9 mg/dL
same,K,[6],4.3 meq/L
same,LDH,[6],79.4 IU/L
same,Na,[6],143.4 meq/L
same,PL,[6],165.2 mg/dL
same,RALB,[6],2.7 g/dL
same,TBIL,[6],0.044 mg/dL
same,TG,[6],152 mg/dL
same,TP,[6],6 g/dL
same,gamma-GTP,[6],1 IU/L
same,ALP,[7],1582 IU/L
same,ALT,[7],39.4 IU/L
same,AST,[7],66.4 IU/L
same,CRE,[7],0.2 mg/dL
same,Ca,[7],10.9 mg/dL
same,Cl,[7],106 meq/L
same,DBIL,[7],0.022 mg/dL
same,GLC,[7],184.2 mg/dL
same,IP,[7],6.7 mg/dL
same,K,[7],4.2 meq/L
same,LDH,[7],118.6 IU/L
same,Na,[7],143.4 meq/L
same,PL,[7],162 mg/dL
same,RALB,[7],2.7 g/dL
same,TBIL,[7],0.062 mg/dL
same,TC,[7],73.8 mg/dL
same,TG,[7],157 mg/dL
same,TP,[7],6 g/dL
same,gamma-GTP,[7],1.2 IU/L
same,ALP,[8],1231.2 IU/L
same,ALT,[8],35.8 IU/L
same,AST,[8],60.8 IU/L
same,BUN,[8],15.6 mg/dL
same,CRE,[8],0.3 mg/dL
same,Ca,[8],10.8 mg/dL
same,Cl,[8],105.6 meq/L
same,DBIL,[8],0.02 mg/dL
same,GLC,[8],191.8 mg/dL
same,IP,[8],6.1 mg/dL
same,K,[8],3.7 meq/L
same,LDH,[8],66.6 IU/L
same,Na,[8],145.2 meq/L
same,PL,[8],148 mg/dL
same,RALB,[8],2.9 g/dL
same,TBIL,[8],0.052 mg/dL
same,TC,[8],63.8 mg/dL
same,TG,[8],156 mg/dL
